How the values were obtained:
[1] = system: endogenous SREBPs; assay: SREBP activation assay (pSRE-Luc luciferase reporter) in CHO-K1 cells; format: cell-based, Chinese hamster; conditions: Cricetulus griseus, CHO-K1; 5 μM in CHOK1 cells
Method: To confirm that fatostatin impairs the function of SREBPs, the ability of endogenous SREBPs to activate transcription of an SREBP-responsive reporter gene was measured in CHO-K1 cells in the presence or absence of fatostatin (FIG. 18A).
Luciferase reporter assay. On day 0, CHO-K1 cells were plated out onto a 96-well plate in medium A (a 1:1 mixture of Ham's F-12 medium and Dulbecco's modified Eagle's medium, with 5% fetal bovine serum, 100 units/mL penicillin, and 100 μg/mL streptomycin sulfate). On day 2, the cells were transiently co-transfected with pSRE-Luc (an SRE-1-driven luciferase reporter construct) (Hua et al., 1995) and pAc-β-gal (β-gal reporter in which the expression of β-gal is controlled by an actin promoter), using Lipofectamine reagent (Invitrogen). After incubation for 5 h, the cells were washed with phosphate-buffered saline (PBS), and then incubated, in the absence or presence of fatostatin, in medium B (a 1:1 mixture of Ham's F-12 medium and Dulbecco's modified Eagle's medium, with 5% lipid-depleted serum, 100 units/mL penicillin, 100 μg/mL streptomycin sulfate, […], and 50 mM sodium mevalonate). After 20 h of incubation, the cells in each well were lysed, and aliquots were used to measure luciferase and β-galactosidase activities. Luciferase activity was normalized by the activity of β-galactosidase. For overexpression of the N-terminal matured form of SREBP-1c, pCMV-SREBP-1c(1-436) was co-transfected with pSRE-Luc and pAc-β-gal.
Standard SREBP activation assays were performed on the exemplary compounds identified in Table 4 as per the method for Fatostatin A in Example 1. The ability of endogenous SREBPs to activate transcription of an SREBP-responsive reporter gene was measured in the presence or absence of compounds 45-55 and 19 (FIG. 28), compounds 56-61 and 19 (FIG. 29) and compounds 62-66 (FIG. 30) at 5 μM in CHOK1 cells. […] The inhibitory concentrations of compounds 53 (FIG. 31) and compounds 58 and 61 (FIG. 32) were determined.

[2] = system: endogenous SREBPs; assay: Luciferase reporter assay (pSRE-Luc, normalized by β-gal) in HEK293 cells; format: cell-based, human; parameters: Luc/Gal: dose or concentration left out as unconfirmed; conditions: entries 1-18 (FIG. 15); none = 9.4426
Method: On day 0, HEK293 cells were plated out in triplicate at a density of 5×10^3/well onto a 96-well plate in a Dulbecco's modified Eagle's medium with 10% fetal bovine serum, 100 units/mL penicillin, and 100 μg/mL streptomycin sulfate. On day 2, the cells were transiently co-transfected with the following plasmids by using Lipofectamine reagent (Invitrogen): 0.4 μg/well pSRE-Luc (an SRE-1-driven luciferase reporter construct; Hua et al., 1995 J Biol Chem 270, 29422-7), and 0.1 μg/well a b-gal reporter in which the expression of β-gal is controlled by an actin promoter in a final volume of […]. After incubation for 5 hrs at 37° C., the cells were washed with phosphate-buffered saline and then incubated in 100 μl of Dulbecco's modified Eagle's medium with 10% lipid-depleted serum, […] penicillin, and 100 μg/mL streptomycin sulfate in the absence or presence of fatostatin A. After 20 hrs of incubation, the cells in each well were lysed with 20 μL of 1× Reporter Lysis Buffer (Promega), and aliquots were used for measurement of luciferase (10 μL) and β-galactosidase (10 μL) activities. For luciferase assay, photon production was detected as counts per second in a Wallac 1420 ARVOsx multilabel counter (PerkinElmer). For β-galactosidase assays, hydrolysis of O-nitrophenyl-β-D-galactosidase was measured after incubation for 0.5 h at 37° C. by a microplate reader at the wave length of 405 nm (Tecan). The luciferase activity (counts per second) was normalized by the activity of β-galactosidase (OD units). For overexpression of the N-terminal matured form of SREBP-1c, pCMV-SREBP-1c (1-436) was co-transfected with pSRE-Luc. pSRE-Luc and pCMV-SREBP-1c (1-436) were provided by J. L. Goldstein (University of Texas Southwestern Medical Center). […]

[3] = system: 3T3-L1 cells; assay: adipogenesis assay (formation of oil droplets); format: cell-based, mouse; parameters: key: +: The analogues that completely inhibited the formation of oil droplets in cells were scored to be adipogenesis-inhibiting analogues; conditions: formation of oil droplets in cells
Method: The adipogenesis assay was performed as described (Choi et al., 2003).

[4] = system: MOLT-4 cells; assay: MOLT-4 cell growth, MTT assay; format: cell-based, human; conditions: 48 hours
Method: 10,000 MOLT-4 cells (FIGS. 35A-35C) and 20,000 RPM18226 cells (FIGS. 35D-35F) were seeded onto 96 well plate in RPMI 1640 medium containing 5% FBS or fat-free charcoal treated serum (FF-FBS) for 24 hours at 37 C. MOLT-4 and RPM18226 cells were treated for additional 48 hours with different concentrations of compound 19 (None control without DMSO, Vehicle with DMSO, 1, 2, 5, 10 and 20 μM in DMSO; RPM18226 cells also were treated with 3 μM in DMSO). At the end of 48 hours cells were subjected to MTT assay to determine viability. Values are depicted as means±SD; *P<0.05.
20,000 MOLT-4 cells (FIGS. 36A-36C) and 20,000 RPM18226 cells (FIGS. 36D-36F) cells were seeded onto 96 well plates in RPMI 1640 Medium containing 5% Fetal bovine serum (FBS) or 5% fat free charcoal treated serum (FF-FBS) for 24 hours at 37 C. Cells then were treated for additional 48 hours with different concentrations of compound 17 (None control without DMSO, Vehicle with DMSO, 1, 2, 3, 5, 10 and 20 μM in DMSO). At the end of the 48 hours treatment cells were subjected to MTT assay to determine viability. Values are depicted as means±SD (n=3); **P<0.001; ***P<0.0001.
MOLT-4 cells were grown at two different conditions under 5% fetal bovine serum (FBS) and under 5% FBS fat free serum (charcoal treated serum). 10,000 Cells were seeded a 96 well plate for 24 hours before starting the treatment with different concentrations of compound 19. Compound 19 dissolved in DMSO was added to cells for 48 hours before determining cell growth using MTT assay. […] Compound 19 inhibited cell growth about 75-80% at 10 and 20 μM under both growth conditions.
MOLT-4 cells were grown at two different conditions under 5% fetal bovine serum (FBS) and under 5% FBS fat free serum (charcoal treated serum). 20,000 cells were seeded into a 96 well plate for 24 hours before starting the treatment with different concentrations of compound 17. Compound 17 dissolved in DMSO was added to cells for 48 hours before determining cell growth using MTT assay. […] Compound 17 inhibited cell growth about 85-100% at 5, 10 and 20 μM under both growth conditions. Under both 5% FBS and 5% FBS fat free sera there was a strong trend of inhibition starting at 1 μM (FIGS. 36B-36C).

SMILES | inhibition at 5 µM [1] [%] | Luc/Gal [2] | Inhibition of adipogenesis [3] | inhibition under 5% FF FBS relative to 5% FBS ([4]; 3 μM) | inhibition of cell growth ([4]; 5, 10 and 20 μM, both growth conditions)
Cc1ccc(S(=O)(=O)Nc2ccc(C(=O)N3CCN(c4cc(Cl)ccc4C)CC3)cc2)cc1 [Compound 58, (4-(5-chloro-2-methylphenyl)piperazin-1-yl)(4-(tosylamino)phenyl)methanone] | ~42 |  |  |  | 
CS(=O)(=O)Nc1ccc(-c2csc([C@H]3CCCN3C(=O)OCc3ccccc3)n2)cc1 [Compound 53, benzyl (R)-2-(4-(4-(methylsulfonamido)phenyl)thiazol-2-yl)pyrrolidine-1-carboxylate] | ~30 |  |  |  | 
Cc1ccc(-c2csc(/C(C#N)=C\Cc3ccc(S(=O)(=O)Nc4nccs4)cc3)n2)c(C)c1 [Compound 61, (Z)-4-(3-cyano-3-(4-(2,4-dimethylphenyl)thiazol-2-yl)allyl)-N-(thiazol-2-yl)benzenesulfonamide] | ~25 |  |  |  | 
CCCc1cc(-c2nc(-c3ccc(NC(C)C)cc3)cs2)ccn1 [Compound 17, N-isopropyl-4-(2-(2-propylpyridin-4-yl)thiazol-4-yl)benzenamine] |  | 4.7079 | + | about 2.5 times | 85-100%
